According to PubChem BioAssay (NCI):
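Compound exposure: 48 hours, 5 concentrations, 96-well plates. Here, GI50 denotes the concentration required for 50% inhibition of growth. The concentration for full growth arrest is given as TGI.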

Experiments:
Test in all cases: NCI-60 cell line screen, 48 h
[1] = system: 786-0 renal
[2] = system: HT29 colon
[3] = system: NCI-H460 lung
[4] = system: OVCAR-5 ovarian
[5] = system: IGROV1 ovarian
[6] = system: SK-MEL-2 melanoma
[7] = system: SF-295 CNS
[8] = system: SR leukemia
[9] = system: CAKI-1 renal
[10] = system: SW-620 colon
[11] = system: TK-10 renal
[12] = system: A549 NSCLC
[13] = system: MDA-MB-435

Compound | TGI [1] [µM] | TGI [2] [µM] | TGI [3] [µM] | TGI [4] [µM] | TGI [5] [µM] | TGI [6] [µM] | TGI [7] [µM] | TGI [8] [µM] | TGI [9] [µM] | TGI [10] [µM] | TGI [11] [µM] | TGI [12] [µM] | TGI [13] [µM] | GI50 [2] [µM] | GI50 [13] [µM] | GI50 [4] [µM] | GI50 [5] [µM] | GI50 [11] [µM] | GI50 [12] [µM]
Cc1c(C(=O)Nc2ccc(Cl)c(C(F)(F)F)c2)oc2cc(O)ccc2/c1=N\NC(N)=S | > 100 | > 100 | > 100 | > 100 | > 100 | > 100 | > 100 | > 100 | > 100 | > 100 | > 100 | > 100 | – | – | – | – | – | – | –
Cc1cc2c(cc1Cl)SC(NNC(=O)c1ccncc1)=NS2(=O)=O | > 10 | > 10 | > 10 | > 10 | > 10 | > 10 | > 10 | – | > 10 | > 10 | > 10 | > 10 | > 10 | – | – | – | – | – | –
Cc1nc2c(s/c(=N\N)n2-c2ccccc2)c(=O)[nH]1 | > 100 | > 100 | > 100 | > 100 | > 100 | > 100 | > 100 | > 100 | > 100 | > 100 | > 100 | > 100 | – | – | – | – | – | – | –
O=C(/C=C/c1c(O)c2ccccc2[nH]c1=O)CC(=O)C(=O)Nc1cccc(O)c1 | > 100 | > 100 | > 100 | > 100 | > 100 | > 100 | > 100 | – | > 100 | > 100 | > 100 | > 100 | > 100 | – | – | – | – | – | –
CO[C@H]1C[C@@H]2CC[C@@H](C)[C@@](O)(O2)C(=O)C(=O)N2CCCC[C@H]2C(=O)O[C@H]([C@H](C)C[C@@H]2CC[C@@H](OC(=O)C(C)(CO)CO)[C@H](OC)C2)CC(=O)[C@H](C)/C=C(\C)[C@@H](O)[C@@H](OC)C(=O)[C@H](C)C[C@H](C)/C=C/C=C/C=C/1C | > 100 | > 100 | – | > 100 | 15.3 | > 55.1 | > 100 | – | > 79.7 | > 100 | – | > 100 | > 100 | 0.182 | 2.5 | > 59.1 | 0.000946 | 0.359 | 0.95
COc1ccc2c(c1)CC1NC2Cc2ccccc21 (configuration not stated) | > 100 | > 100 | > 100 | > 100 | > 100 | > 100 | > 100 | – | > 100 | > 100 | > 100 | > 100 | – | – | – | – | – | – | –
NC(=Nc1ccc(Cl)c(Cl)c1)c1ccccc1N | > 100 | > 100 | > 100 | > 100 | 97.9 | 86.8 | > 100 | – | > 100 | > 100 | > 100 | > 100 | 42.2 | – | – | – | – | – | –
Cc1cc(Cl)ccc1NC(=O)/C(CC(=O)CC(c1ccccc1)c1c(O)c2ccccc2oc1=O)=N\O (configuration not stated) | > 100 | > 100 | > 100 | > 100 | > 100 | > 100 | > 100 | – | > 100 | > 100 | > 100 | > 100 | > 100 | – | – | – | – | – | –
CCOC(=O)C1C(C(C)C)C2(C#N)C(=N)OC1(C)C2(C#N)C#N (configuration not stated) | > 100 | > 100 | – | > 100 | > 100 | > 100 | > 100 | – | 23 | > 100 | > 100 | > 100 | > 100 | – | – | – | – | – | –
CC[N+](CC)(CC)Cc1cn(S(=O)(=O)c2ccccc2)c2ccccc12 | > 100 | > 100 | > 100 | > 100 | > 100 | > 100 | > 100 | > 100 | > 100 | > 100 | > 100 | > 100 | – | – | – | – | – | – | –
COc1ccc(-c2cc(=O)c3c(O)c(OC)c(O)cc3o2)cc1O | > 52.7 | > 61.8 | 43.6 | > 100 | 40.2 | > 43.5 | > 100 | – | > 73.2 | > 100 | > 100 | > 100 | > 100 | – | – | – | – | – | –
O=C1OC(c2ccccc2)(c2ccccc2)CC1CN1CCOCC1 (configuration not stated) | 30.4 | 15.1 | > 100 | 67.5 | > 100 | 36.5 | – | 8.43 | – | 18 | 31.6 | 24.5 | – | – | – | – | – | – | –
N#CC(c1ccc(Cl)cc1)c1cccc(Cl)n1 (configuration not stated) | > 100 | > 100 | > 100 | > 100 | – | > 100 | > 100 | > 100 | > 100 | > 100 | > 100 | > 100 | – | – | – | – | – | – | –
CN(C)c1cccc(-c2cc(=O)c3cc4c(cc3[nH]2)OCO4)c1 | 30.1 | > 100 | 0.987 | 0.92 | > 47.5 | > 100 | 0.693 | > 100 | > 100 | > 100 | > 100 | – | – | – | – | – | – | – | –
O=C(/C=C(\O)C(=O)O)/C=C(\O)c1ccccc1Cl | > 100 | > 100 | > 100 | > 100 | > 100 | > 100 | > 100 | > 100 | > 100 | > 100 | > 100 | > 100 | – | – | – | – | – | – | –
CC(C)C1=CC(=O)C(C)(C2=NC(C)(C)CO2)c2ccccc21 (configuration not stated) | > 100 | > 100 | > 100 | – | > 100 | > 100 | > 100 | > 100 | > 100 | > 100 | > 100 | > 100 | – | – | – | – | – | – | –
O=C(/C=C\c1cccc2ccccc12)c1ccc(Br)cc1 | 33.7 | 35.3 | 37.2 | 47.4 | 46.1 | – | 46.5 | – | > 100 | 24.4 | > 100 | > 100 | – | – | – | – | – | – | –
CC(=O)CCC(=O)CC(O)(C(F)(F)F)C(F)(F)F | 30.2 | 34.7 | 38.6 | 29.9 | 31.1 | – | 27.1 | 32 | – | 42.8 | 44.1 | 41.9 | 34.6 | – | – | – | – | – | –
Clc1cccc(Cl)c1C1SCc2nc3cc4ccccc4cc3n21 (configuration not stated) | > 100 | > 100 | > 100 | > 100 | > 100 | > 100 | > 100 | – | > 100 | > 100 | > 100 | > 100 | > 100 | – | – | – | – | – | –
